Columns and labels:
HEK293sieSTAT3(Y640F) [1] = assay: drug sensitivity score (DSS), cytotoxicity CellTox Green (DSS (dimensionless)); higher = more cytotoxic; extreme values may be limits of the assay; details: 72 h; STAT3 variant: Y640F (constitutively active)
How it was run: (§1)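 In 384-well plates with acoustically pre-plated compounds (5 concentrations, 10-fold dilutions), 20 μl of HEK293 cells at 100,000 cells/ml were added; the cells overexpressed wild-type or mutant STAT3 and carried a STAT3-dependent luciferase reporter. Incubation lasted 72 hours at 37°C and 5% CO2 before sequential CellTox Green (485/520 nm) and CellTiter-Glo reads on a PHERAstar FS. After normalisation to negative and positive control wells, Breeze was used to derive a drug sensitivity score from the dose-response curve area.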

HEK293sieSTAT3(wt) [2] = assay: as above; details: 72 h; STAT3 variant: wild type
How it was run: as §1

HEK293sieSTAT3(Y640F) [3] = assay: drug sensitivity score (DSS), viability CellTiter-Glo (DSS (dimensionless)); higher = more growth inhibition; extreme values may be limits of the assay; details: 72 h; STAT3 variant: Y640F (constitutively active)
How it was run: as §1

HEK293sieSTAT3(wt) [4] = assay: as above; details: 72 h; STAT3 variant: wild type
How it was run: as §1

| SMILES | drug sensitivity score (HEK293sieSTAT3(Y640F) [1]) | drug sensitivity score (HEK293sieSTAT3(wt) [2]) | drug sensitivity score (HEK293sieSTAT3(Y640F) [3]) | drug sensitivity score (HEK293sieSTAT3(wt) [4]) |
| --- | --- | --- | --- | --- |
| COc1c(OCCCN2CCOCC2)ccc2c1N=C(NC(=O)c1cnc(N)nc1)N1CCN=C21 [Copanlisib] (top concentration tested 1000 nM) | 0 | 0.34 | 15.5 | 18.3 |
| CC1(COc2ccc3c(c2)ncn3-c2ccc3cccc(N4CCC(N)CC4)c3n2)COC1 [Crenolanib] (top concentration tested 10000 nM) | 8.74 | 11 | 9.27 | 11.9 |
| C[C@@H](Oc1cc(-c2cnn(C3CCNCC3)c2)cnc1N)c1c(Cl)ccc(F)c1Cl [Crizotinib] (top concentration tested 1000 nM) | 0.46 | 5.34 | 1.05 | 1.97 |
| O=P1(N(CCCl)CCCl)NCCCO1 (stereo not given) [Cyclophosphamide] (top concentration tested 40000 nM) | 0 | 0 | 0 | 0 |
| Nc1ccn([C@@H]2O[C@H](CO)[C@@H](O)[C@@H]2O)c(=O)n1 [Cytarabine] (top concentration tested 10000 nM) | 0.18 | 1.75 | 8.82 | 13.3 |
| CC(C)(C)c1nc(-c2cccc(NS(=O)(=O)c3c(F)cccc3F)c2F)c(-c2ccnc(N)n2)s1 [Dabrafenib] (top concentration tested 2500 nM) | 0 | 0 | 0 | 0 |
| CN(C)/N=N/c1[nH]cnc1C(N)=O [Dacarbazine] (top concentration tested 10000 nM) | 0 | 0 | 0.02 | 2.09 |
| COc1cc2ncnc(Nc3ccc(F)c(Cl)c3)c2cc1NC(=O)/C=C/CN1CCCCC1 [Dacomitinib] (top concentration tested 1000 nM) | 0 | 0 | 1.76 | 5.47 |
| Cc1c2oc3c(C)ccc(C(=O)N[C@@H]4C(=O)N[C@H](C(C)C)C(=O)N5CCC[C@H]5C(=O)N(C)CC(=O)N(C)[C@@H](C(C)C)C(=O)O[C@@H]4C)c3nc-2c(C(=O)N[C@@H]2C(=O)N[C@H](C(C)C)C(=O)N3CCC[C@H]3C(=O)N(C)CC(=O)N(C)[C@@H](C(C)C)C(=O)O[C@@H]2C)c(N)c1=O [Dactinomycin] (top concentration tested 1000 nM) | 0 | 0 | 32.5 | 35.4 |
| Cn1c(=O)n(-c2ccc(C(C)(C)C#N)cc2)c2c3cc(-c4cnc5ccccc5c4)ccc3ncc21 [Dactolisib] (top concentration tested 1000 nM) | 0 | 2.88 | 19.3 | 23 |
| CO[C@@H](C(=O)N1Cc2[nH]nc(NC(=O)c3ccc(N4CCN(C)CC4)cc3)c2C1)c1ccccc1 [Danusertib] (top concentration tested 10000 nM) | 0 | 11.8 | 6.46 | 7.14 |
| O=C(/C=C/c1cccnc1)NCCCCC1CCN(C(=O)c2ccccc2)CC1 [Daporinad] (top concentration tested 1000 nM) | 3.19 | 0 | 32.8 | 32.8 |
| CCN(CC)CCN(Cc1ccc(-c2ccc(C(F)(F)F)cc2)cc1)C(=O)Cn1c(SCc2ccc(F)cc2)nc(=O)c2c1CCC2 [Darapladib] (top concentration tested 1000 nM) | 1.32 | 0.65 | 1.89 | 1.03 |
| Cc1nc(Nc2ncc(C(=O)Nc3c(C)cccc3Cl)s2)cc(N2CCN(CCO)CC2)n1 [Dasatinib] (top concentration tested 1000 nM) | 0 | 1.81 | 6.45 | 2.74 |
| COc1cccc2c1C(=O)c1c(O)c3c(c(O)c1C2=O)C[C@@](O)(C(C)=O)C[C@@H]3O[C@H]1C[C@H](N)[C@H](O)[C@H](C)O1 [Daunorubicin] (top concentration tested 1000 nM) | 0 | 0 | 21.9 | 24 |
| Nc1ncn([C@H]2C[C@H](O)[C@@H](CO)O2)c(=O)n1 [Decitabine] (top concentration tested 10000 nM) | 0.02 | 3.31 | 7.35 | 10.4 |
| CC(=O)N(O)CCCCCNC(=O)CCC(=O)N(O)CCCCCNC(=O)CCC(=O)N(O)CCCCCN [Deferoxamine] (top concentration tested 10000 nM) | 0.01 | 1.09 | 2.48 | 3.23 |
| C[C@@H]1C[C@H]2[C@@H]3CCC4=CC(=O)C=C[C@]4(C)[C@@]3(F)[C@@H](O)C[C@]2(C)[C@@]1(O)C(=O)CO [Dexamethasone] (top concentration tested 10000 nM) | 0 | 0 | 3 | 2.01 |
| CCc1cnn2c(NCc3ccc[n+]([O-])c3)cc(N3CCCC[C@H]3CCO)nc12 [Dinaciclib] (top concentration tested 1000 nM) | 7.03 | 24.6 | 27.9 | 28.8 |
| CCN(CC)C(=S)SSC(=S)N(CC)CC [Disulfiram] (top concentration tested 100000 nM) | 30.9 | 30.4 | 31.1 | 30.2 |

Source: the supplement of paper PMC7108870
